Series [1] has as its system HIV-1 mutant Asn103/Ile108RT in TZM-bl cells. Put plainly: Anti-HIV assay on TZM-bl cells, Asn103/Ile108RT double mutant. It counts as cell-based. Conditions: read-out: EC50 Asn103/Ile108RT TZM-bl. The source says:
In order to introduce mutation(s) at the level of the pol gene coding for the RT in the pNL4-3 plasmid containing the complete viral genome (Adachi et al., 1986. J. Virol., Vol. 59 p 284-291) we used the “Quick change mutagenesis kit” (Stratagene). The following mutations were separately introduced in pNL4-3: L100I, K103N, V108I, Y181C, Y188C, and the double mutations K103N/V108I. These mutations were chosen because of the resistance that they confer to existing NNRTI. The production procedure of the mutant viral stocks is identical to the one described above.
Anti-HIV activity and cytotoxicity of the compounds were tested on the TZM-b1 cell line. The TZM-b1 cell line (Wei et al. 2002. Antimicrob. Agents Chemother. Vol. 46, p 1896-1905) was received from the NIH AIDS Research and Reference Reagent Program. These cells were cultured in complete DMEM medium supplemented with 10% fetal bovine serum (FBS), and 1% Penicillin/Streptomycin. Exponentially growing cells were trypsinized, centrifuged and split twice weekly at 5 10^4 cells/ml.
The anti-HIV assay with TZM-b1 cells is essentially the same as described above with P4 cells. The main difference between the two cell lines is that the TZM-b1 cells express at their surface both the CD4 and CCR5 proteins, acting as receptor and co-receptor for HIV entry, respectively (Wei et al. 2002. Antimicrob. Agents Chemother. Vol. 46, p 1896-1905). This feature makes the cells very sensitive to infection by the virus. The TMZ-b1 cells were infected with equal amount of cell-free virus, corresponding to 10 ng of HIV p24 antigen. This amount is ten times lower than the amount used to infect the P4 cells.

Series [2] relates to HIV-1 with WT (wild type) RT in PBMC. Put plainly: Anti-HIV assay on PBMC, WT RT (p24). It counts as cell-based. Here is the method:
Wurzburg Jurkat T cells (subclone JR) were transfected with 10 μg of the circularly permuted infectious molecular clone HIVNL4-3 (Adachi et al., 1986. J. Virol, 59 (2), p 284-291). Two days later, co-cultivation with SupT1 cells (a human T-cell lymphoma cell line) was initiated to facilitate rapid production of progeny virions. Production of virus was measured by using the Innotest HIV Antigen mAb p24 kit (Innogenetics). At the peak of production cultures were harvested and filtered. The virus stocks were stored at −80° C. until used.
Anti-HIV activity of the compounds was tested on Peripheral Blood Mononuclear Cells (PBMCs). These cells were separated from the blood of healthy donor using established procedures. PBMCs were cultured in RPMI medium supplemented with 10% fetal bovine serum (FBS), 1% Penicillin/Streptomycin and 20 U/ml of Interleukin-2.
PBMCs isolated from the blood of healthy donor contain CD4^+ T-lymphocytes which are one of the main targets of HIV in infected individuals.
Briefly, in the anti-HIV assay PBMCs, activated with phytohemagglutinin, were infected with HIV-1. 100 μl of infected PBMCs were seeded in 96-well plate at a concentration of 1 10^5 cells/ml, and 100 μl of the different drugs dilutions were added to the cells. After 4 days of incubation at 37° C., 5% CO2, cells cultures supernatants were collected. The amount of the viral capsid protein p24 in the supernatants was measured using the Innotest HIV Antigen mAb P24 kit (Innogenetics).

The test system of series [3] is HIV-1 with WT (wild type) RT in P4 cells. Conditions: published values; read-out: Nevirapine activity, published values; cited from earlier work.
[4] abbreviates: TZM-bl, double mutant Asn103/Ile108RT.
Where [5] appears, read: Human immunodeficiency virus 1, TZM-bl.

Where two headings read alike, the source gives them in different places.

We go through 9 compounds from patent US20070275953A1 (priority 2003, published 2007).

Turning to `CCc1c(C)[nH]c(=O)c(CN=[N+]=[N-])c1OC1CC(C)CC(C)C1` (stereo not drawn) [Z153], the EC50 in series [1] (setting [4]) stood at 366 nM.

As for `Cc1ccnc2c1NC(=O)c1cccnc1N2C1CC1` [Nevirapine, reference compound], the EC50 in series [2] (Human immunodeficiency virus 1) is 30 nM; in series [3], 10 to 100 nM.

In turn, `CCOC(=O)c1c(OC2CC(C)CC(C)C2)c(CC)c(C)[nH]c1=O` (single isomer, unassigned) [Z37inv] returned an EC50 in series [2] of 54 nM.

In series [2], `CCc1c(C)[nH]c(=O)c(CO)c1OC1CC(C)CC(C)C1` (stereo not drawn) [Z45inv] gave an EC50 of 18 nM.

For orientation: melting point means the temperature of the solid-liquid transition. The compound `CCc1c(C)[nH]c(=O)c([N+](=O)[O-])c1OC1CC(C)CC(C)C1` (stereo not drawn) [Z91inv, 3-nitro-5-ethyl-6-methyl-4-[(3,5-dimethylcyclohexyl)oxy]pyridine-2(1H)-one] displayed a melting point of 206 to 207 °C. Also, the EC50 in series [2] (Human immunodeficiency virus 1) is under 1 nM.

As for `CCc1c(C)[nH]c(=O)c(C)c1OC1CC(C)CC(C)C1` (stereo not drawn) [Z154], the EC50 in series [1] (setting [4]) came to 231 nM.

On to `O=C1Nc2ccc(Cl)cc2[C@@](C#CC2CC2)(C(F)(F)F)O1` [Efavirenz, reference compound], for which the EC50 in series [1] (setting [5]) was 150 nM.

Compound `CCc1c(C)[nH]c(=O)c(CSC(C)=O)c1OC1CC(C)CC(C)C1` (stereo not drawn) [Z114] had an EC50 in series [2] of under 1 nM.

Compound `CCc1c(C)[nH]c(=O)c(N(C)C)c1OC1CC(C)CC(C)C1` (stereo not drawn) [Z150, 3-(dimethylamino)-5-ethyl-6-methyl-4-[(3,5-dimethylcyclohexyl)oxy]pyridine-2(1H)-one] registered a melting point of 129 to 130 °C. In series [1] (setting [5]), the EC50 is 158 nM.
